The values that follow come from patent publication US12257287B2, “Glucagon-derived peptide and use thereof” (Tianjin Institute of Pharmaceutical Research Co., Ltd., priority 2018, dated 2025).

Converted amounts (≈) assume the structure as drawn. Numbered stars: 1 amine (or outer) side, 2 acyl side, 3 side chain; on linkers, the order of the positions; unused ones are H or OH. Square brackets hold non-standard residues; d marks the D form. Side chains are listed from the residue outwards. Peptide text beside a SMILES is read from it. * marks the point of attachment. C18 diacid = O=C(O)CCCCCCCCCCCCCCCCC(=O)*; γGlu = O=C(O)[C@H](CCC(=O)[*:2])N[*:1]; AEEA = NCCOCCOCC(=O)O; Aib = CC(C)(N)C(=O)O

The nature of data set [1]: Short-term administration: food intake and body weight in DIO mice. It counts as in vivo. The settings on record: 30 nmol/kg once every 24 h, twice, − decrease. On the procedure:
Method: diet-induced obese mice (DIO) with an average body weight of 52.5 g were divided into model control and test groups, 5 mice in each group. The test samples were dissolved in 10 mM PBS of pH7.4, injected once every 24 h at a dose of 30 nmol/kg, and administered twice. The model group was injected with solvent. Changes in food intake and body weight at 48 hours were measured, and the change rates were calculated compared to the day before administration.

The target in data set [2] is T1, GC receptor (Homo sapiens, UniProt P47871).
T1 construct: expressed in transfected cells; host or cells: HEK293 cells
The data set is described as follows: GC receptor mediated cAMP production in vitro (HEK293 cells transfected with GC receptor). The settings on record: 20 min at 37° C., read-out: GCGR (nM EC50). Type of data set: cell-based. From the text: The medium was removed, the cells were lysed, and cAMP values were detected referring to the detection method described for the assay kit.

The nature of data set [3]: physchem. It counts as physicochemical.
Where [4] appears, read: pH 7.5, Solubility, pH 7.5, 10 mM phosphate buffer.
Setting [5] is: pH 8, Solubility, pH 8.0, 10 mM phosphate buffer.
Where [6] appears, read: pH 8, Solubility, pH 8.0, 20 mM phosphate buffer.
Where [7] appears, read: pH 7.5, Solubility, pH 7.5, 20 mM phosphate buffer.
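Throughout, for Solubility, pH 7.5, 20 mM phosphate buffer: compound added at 2 mg per mL of phosphate buffer, with the dissolved amount determined in the supernatant.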
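Throughout, for Solubility: compound added at 2 mg per mL of phosphate buffer, with the dissolved amount determined in the supernatant.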

T1 sequence (P47871 26-477): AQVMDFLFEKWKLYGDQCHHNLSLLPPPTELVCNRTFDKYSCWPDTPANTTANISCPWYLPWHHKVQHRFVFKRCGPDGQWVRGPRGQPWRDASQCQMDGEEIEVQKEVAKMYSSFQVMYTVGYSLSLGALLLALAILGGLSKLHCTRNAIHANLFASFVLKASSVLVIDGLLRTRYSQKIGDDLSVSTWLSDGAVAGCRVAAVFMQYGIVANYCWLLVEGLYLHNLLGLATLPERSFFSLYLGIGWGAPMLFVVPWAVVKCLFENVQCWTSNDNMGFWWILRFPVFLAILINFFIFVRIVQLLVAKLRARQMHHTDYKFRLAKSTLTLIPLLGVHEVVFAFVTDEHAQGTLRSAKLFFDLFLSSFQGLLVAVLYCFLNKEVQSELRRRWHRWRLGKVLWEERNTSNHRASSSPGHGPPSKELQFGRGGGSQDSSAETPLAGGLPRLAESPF

As to `CC[C@H](C)[C@H](NC(=O)[C@H](Cc1ccccc1)NC(=O)[C@H](CCC(=O)O)NC(=O)[C@H](CCCCN)NC(=O)[C@H](C)NC(=O)[C@H](C)NC(=O)[C@H](CCCNC(=N)N)NC(=O)[C@H](CCC(=O)O)NC(=O)[C@H](CC(=O)O)NC(=O)[C@H](CC(C)C)NC(=O)[C@H](Cc1ccc(O)cc1)NC(=O)[C@H](CCCCN)NC(=O)[C@H](CO)NC(=O)[C@H](CCCCNC(=O)COCCOCCNC(=O)COCCOCCNC(=O)CC[C@H](NC(=O)CCCCCCCCCCCCCCCCC(=O)O)C(=O)O)NC(=O)[C@H](CC(=O)O)NC(=O)[C@H](CO)NC(=O)[C@@H](NC(=O)[C@H](Cc1ccccc1)NC(=O)[C@@H](NC(=O)CNC(=O)[C@H](CCC(N)=O)NC(=O)[C@H](CO)NC(=O)[C@@H](N)Cc1c[nH]cn1)[C@@H](C)O)[C@@H](C)O)C(=O)N[C@@H](C)C(=O)N[C@@H](Cc1c[nH]c2ccccc12)C(=O)N[C@@H](CC(C)C)C(=O)N[C@@H](CCC(=O)O)C(=O)N[C@@H](C)C(=O)NCC(=O)NCC(=O)N1CCC[C@H]1C(=O)N[C@@H](CO)C(=O)N[C@@H](CO)C(=O)NCC(N)=O` [Compound 36] (H-HSQGTFTSDK([AEEA-AEEA-γGlu-C18 diacid])SKYLDERAAKEFIAWLEAGGPSSG-NH2; N-terminus assumed), in data set [1] (at 48 hours vs day before administration), the “Rate of change in food intake (%)” value is on record as −46%. In data set [1] (at 48 hours), the “Body weight change” value was -1.7 g. The EC50 in data set [2] was 0.069 nM.
With `CCCCCCCCCCCCCCCC(=O)N[C@@H](CCC(=O)N[C@@H](CCC(=O)NCCCC[C@H](NC(=O)[C@H](C)NC(=O)[C@H](CCCNC(=N)N)NC(=O)[C@H](CCCCN)NC(=O)[C@H](CCC(=O)O)NC(=O)[C@H](CCC(=O)O)NC(=O)[C@H](CC(C)C)NC(=O)[C@H](Cc1ccc(O)cc1)NC(=O)[C@H](CCCCN)NC(=O)[C@H](CO)NC(=O)[C@H](Cc1ccc(O)cc1)NC(=O)[C@H](CC(=O)O)NC(=O)[C@H](CO)NC(=O)[C@@H](NC(=O)[C@H](Cc1ccccc1)NC(=O)[C@@H](NC(=O)CNC(=O)[C@H](CCC(N)=O)NC(=O)C(C)(C)NC(=O)[C@@H](N)Cc1c[nH]cn1)[C@@H](C)O)[C@@H](C)O)C(=O)N[C@@H](CCC(=O)O)C(=O)N[C@@H](Cc1ccccc1)C(=O)N[C@H](C(=O)N[C@@H](CCC(=O)O)C(=O)N[C@@H](Cc1c[nH]c2ccccc12)C(=O)N[C@@H](CC(C)C)C(=O)N[C@@H](CC(C)C)C(=O)N[C@@H](CCC(=O)O)C(=O)N[C@@H](C)C(=O)NCC(=O)NCC(=O)N1CCC[C@H]1C(=O)N[C@@H](CO)C(=O)N[C@@H](CO)C(=O)NCC(N)=O)C(C)C)C(=O)O)C(=O)O` [Compound 26] (HELM PEPTIDE1{H.[Aib].Q.G.T.F.T.S.D.Y.S.K.Y.L.E.E.K.R.A.K.E.F.V.E.W.L.L.E.A.G.G.P.S.S.G.[am]}|PEPTIDE2{[CCCCCCCCCCCCCCCC(=O)[*:2]].[gGlu].[gGlu]}$PEPTIDE1,PEPTIDE2,20:R3-3:R2$$$V2.0; N-terminus assumed), in data set [2], the half-maximal effective concentration (EC50) stood at 0.197 nM. Besides, the “Solubility, pH 7.5, 20 mM phosphate buffer” value in data set [3] (pH 7.5) is “Insoluble”. Moreover, the solubility in data set [3] (setting [4]) was determined as 80 µg/mL (≈ 18.1 µM); in data set [3] (setting [5]), 200 µg/mL (≈ 45.2 µM); in data set [3] (setting [6]), 100 µg/mL (≈ 22.6 µM).
In the case of `CC(C)C[C@H](NC(=O)[C@H](Cc1c[nH]c2ccccc12)NC(=O)[C@H](CCC(=O)O)NC(=O)[C@@H](NC(=O)[C@H](Cc1ccccc1)NC(=O)[C@H](CCC(=O)O)NC(=O)[C@H](CCCCNC(=O)COCCOCCNC(=O)COCCOCCNC(=O)CC[C@H](NC(=O)CCCCCCCCCCCCCCCCC(=O)O)C(=O)O)NC(=O)[C@H](C)NC(=O)[C@H](CCCCN)NC(=O)[C@H](CCCNC(=N)N)NC(=O)[C@H](CCC(=O)O)NC(=O)[C@H](CC(=O)O)NC(=O)[C@H](CC(C)C)NC(=O)[C@H](Cc1ccc(O)cc1)NC(=O)[C@H](CCCCN)NC(=O)[C@H](CO)NC(=O)[C@H](Cc1ccc(O)cc1)NC(=O)[C@H](CC(=O)O)NC(=O)[C@H](CO)NC(=O)[C@@H](NC(=O)[C@H](Cc1ccccc1)NC(=O)[C@@H](NC(=O)CNC(=O)[C@H](CCC(N)=O)NC(=O)C(C)(C)NC(=O)[C@@H](N)Cc1c[nH]cn1)[C@@H](C)O)[C@@H](C)O)C(C)C)C(=O)N[C@@H](CCC(=O)O)C(=O)N[C@@H](C)C(=O)NCC(=O)NCC(=O)N1CCC[C@H]1C(=O)N[C@@H](CO)C(=O)N[C@@H](CO)C(=O)NCC(N)=O` [Compound 42] (H-H[Aib]QGTFTSDYSKYLDERKAK([AEEA-AEEA-γGlu-C18 diacid])EFVEWLEAGGPSSG-NH2; N-terminus assumed), the concentration giving a half-maximal response (EC50) in data set [2] came out at 0.024 nM. The solubility in data set [3] (setting [4]) was 1720 µg/mL (≈ 380 µM); in data set [3] (setting [7]), 1510 µg/mL (≈ 334 µM); in data set [3] (setting [5]), more than 2000 µg/mL; in data set [3] (setting [6]), more than 2000 µg/mL.
As for `CCCCCCCCCCCCCCCC(=O)N[C@@H](CCC(=O)N[C@@H](CCC(=O)NCCCC[C@H](NC(=O)[C@H](C)NC(=O)[C@H](CCCCN)NC(=O)[C@H](CCCNC(=N)N)NC(=O)[C@H](CCC(=O)O)NC(=O)[C@H](CCC(=O)O)NC(=O)[C@H](CC(C)C)NC(=O)[C@H](Cc1ccc(O)cc1)NC(=O)[C@H](CCCCN)NC(=O)[C@H](CO)NC(=O)[C@H](Cc1ccc(O)cc1)NC(=O)[C@H](CC(=O)O)NC(=O)[C@H](CO)NC(=O)[C@@H](NC(=O)[C@H](Cc1ccccc1)NC(=O)[C@@H](NC(=O)CNC(=O)[C@H](CCC(N)=O)NC(=O)C(C)(C)NC(=O)[C@@H](N)Cc1c[nH]cn1)[C@@H](C)O)[C@@H](C)O)C(=O)N[C@@H](CCC(=O)O)C(=O)N[C@@H](Cc1ccccc1)C(=O)N[C@H](C(=O)N[C@@H](CCC(=O)O)C(=O)N[C@@H](Cc1c[nH]c2ccccc12)C(=O)N[C@@H](CC(C)C)C(=O)N[C@@H](CCC(=O)O)C(=O)NCC(=O)NCC(=O)N1CCC[C@H]1C(=O)N[C@@H](CO)C(=O)N[C@@H](CO)C(=O)NCC(N)=O)C(C)C)C(=O)O)C(=O)O` [Compound 62] (HELM PEPTIDE1{H.[Aib].Q.G.T.F.T.S.D.Y.S.K.Y.L.E.E.R.K.A.K.E.F.V.E.W.L.E.G.G.P.S.S.G.[am]}|PEPTIDE2{[CCCCCCCCCCCCCCCC(=O)[*:2]].[gGlu].[gGlu]}$PEPTIDE1,PEPTIDE2,20:R3-3:R2$$$V2.0; N-terminus assumed), the EC50 in data set [2] is 0.156 nM. Besides, the solubility in data set [3] (setting [4]) was 1170 µg/mL (≈ 276 µM); in data set [3] (setting [7]), 850 µg/mL (≈ 200 µM); in data set [3] (setting [5]), 1630 µg/mL (≈ 384 µM); in data set [3] (setting [6]), 1590 µg/mL (≈ 375 µM).
The like results for `CCCCCCCCCCCCCCCC(=O)N[C@@H](CCC(=O)N[C@@H](CCC(=O)NCCCC[C@H](NC(=O)[C@H](CC(=O)O)NC(=O)[C@H](CO)NC(=O)[C@@H](NC(=O)[C@H](Cc1ccccc1)NC(=O)[C@@H](NC(=O)CNC(=O)[C@H](CCC(N)=O)NC(=O)C(C)(C)NC(=O)[C@@H](N)Cc1c[nH]cn1)[C@@H](C)O)[C@@H](C)O)C(=O)N[C@@H](CO)C(=O)N[C@@H](CCCCN)C(=O)N[C@@H](Cc1ccc(O)cc1)C(=O)N[C@@H](CC(C)C)C(=O)N[C@@H](CCC(=O)O)C(=O)N[C@@H](CCC(=O)O)C(=O)N[C@@H](CCCNC(=N)N)C(=O)N[C@@H](C)C(=O)N[C@@H](C)C(=O)N[C@@H](CCCCN)C(=O)N[C@@H](CCC(=O)O)C(=O)N[C@@H](Cc1ccccc1)C(=O)N[C@H](C(=O)N[C@@H](C)C(=O)N[C@@H](Cc1c[nH]c2ccccc12)C(=O)N[C@@H](CC(C)C)C(=O)N[C@@H](CC(C)C)C(=O)N[C@@H](CCC(=O)O)C(=O)NCC(=O)NCC(=O)N1CCC[C@H]1C(=O)N[C@@H](CO)C(=O)N[C@@H](CO)C(=O)NCC(N)=O)[C@@H](C)CC)C(=O)O)C(=O)O` [Compound 16] (HELM PEPTIDE1{H.[Aib].Q.G.T.F.T.S.D.K.S.K.Y.L.E.E.R.A.A.K.E.F.I.A.W.L.L.E.G.G.P.S.S.G.[am]}|PEPTIDE2{[CCCCCCCCCCCCCCCC(=O)[*:2]].[gGlu].[gGlu]}$PEPTIDE1,PEPTIDE2,10:R3-3:R2$$$V2.0; N-terminus assumed) were, in that order, 0.092 nM, 140 µg/mL (≈ 33.2 µM), 50 µg/mL (≈ 11.8 µM), 160 µg/mL (≈ 37.9 µM) and 200 µg/mL (≈ 47.4 µM).
The like results for `CCCCCCCCCCCCCCCC(=O)N[C@@H](CCC(=O)N[C@@H](CCC(=O)NCCCC[C@H](NC(=O)[C@H](CC(=O)O)NC(=O)[C@H](CO)NC(=O)[C@@H](NC(=O)[C@H](Cc1ccccc1)NC(=O)[C@@H](NC(=O)CNC(=O)[C@H](CCC(N)=O)NC(=O)C(C)(C)NC(=O)[C@@H](N)Cc1c[nH]cn1)[C@@H](C)O)[C@@H](C)O)C(=O)N[C@@H](CO)C(=O)N[C@@H](CCCCN)C(=O)N[C@@H](Cc1ccc(O)cc1)C(=O)N[C@@H](CC(C)C)C(=O)N[C@@H](CCC(=O)O)C(=O)N[C@@H](CCC(=O)O)C(=O)N[C@@H](CCCNC(=N)N)C(=O)N[C@@H](C)C(=O)N[C@@H](C)C(=O)N[C@@H](CCCCN)C(=O)N[C@@H](CCC(=O)O)C(=O)N[C@@H](Cc1ccccc1)C(=O)N[C@H](C(=O)N[C@@H](CCC(=O)O)C(=O)N[C@@H](Cc1c[nH]c2ccccc12)C(=O)N[C@@H](CC(C)C)C(=O)N[C@@H](CC(C)C)C(=O)N[C@@H](CCC(=O)O)C(=O)N[C@@H](C)C(=O)NCC(=O)NCC(=O)N1CCC[C@H]1C(=O)N[C@@H](CO)C(=O)N[C@@H](CO)C(=O)NCC(N)=O)C(C)C)C(=O)O)C(=O)O` [Compound 25] (HELM PEPTIDE1{H.[Aib].Q.G.T.F.T.S.D.K.S.K.Y.L.E.E.R.A.A.K.E.F.V.E.W.L.L.E.A.G.G.P.S.S.G.[am]}|PEPTIDE2{[CCCCCCCCCCCCCCCC(=O)[*:2]].[gGlu].[gGlu]}$PEPTIDE1,PEPTIDE2,10:R3-3:R2$$$V2.0; N-terminus assumed) were, in that order, 0.278 nM, 300 µg/mL (≈ 69.2 µM), 100 µg/mL (≈ 23.1 µM), 500 µg/mL (≈ 115 µM) and 200 µg/mL (≈ 46.1 µM).

The term EC50 denotes the concentration needed to bring the measured effect to its halfway point. Usually solubility stands for the concentration that dissolves in the medium under given conditions. The low end stands for little dissolved substance, the high end for much dissolved substance.
